Experiment in all cases: DTP human tumour cell line panel, 48 h
In assay [1] the test system is A498.
Assay [2] concerns NCI-H226.
Assay [3] relates to UACC-62.
In assay [4] the test system is RXF 393.
In assay [5] the test system is KM12.
The test system of assay [6] is SNB-19.
Assay [7] deals with NCI-H23.
Assay [8] concerns UACC-257.
Assay [9] deals with SK-MEL-2.
Assay [10] has as its system SK-OV-3.
The test system of assay [11] is SW-620.
Assay [12] deals with SK-MEL-28.
In assay [13] the test system is ACHN.
Assay [14] concerns SNB-75.
Assay [15] has as its system K562.
Assay [16] deals with COLO 205.
In assay [17] the test system is MDA-MB-231.
Assay [18] deals with MDA-MB-435.
Assay [19] relates to DU-145.

SMILES strings stand for the structures.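 1) Cells in 96-well plates. 2) Compound, 48 h, 5 concentrations. 3) Linear interpolation between surrounding doses. 4) Unreached endpoint = highest concentration. The concentration for 50% growth inhibition is given as GI50.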 Active and inactive are the calls of the source. Cut-off read from the data, not from the text of the source: active = GI50 up to about 1.1 µM and inactive = higher.

In the case of `CCc1nc2c([nH]1)C(=O)c1ccccc1C2=O`, the GI50 (as a rule, the concentration giving 50% growth inhibition) in [1] was > 100 µM (inactive); in assay [2], 34 µM (inactive); in assay [3], 29.9 µM (inactive); in assay [4], > 100 µM (inactive); in assay [5] it was 59.7 µM (inactive); in assay [6], 46.2 µM (inactive). Also, the GI50 in assay [7] is 29 µM (inactive); in [8] it was 26.5 µM (inactive); in assay [9], > 100 µM (inactive); in [10], > 100 µM (inactive); in [11], 43.4 µM (inactive); in assay [12], > 100 µM (inactive). Moreover, the GI50 is 59.8 µM (inactive) in assay [13], > 100 µM (inactive) in assay [14] and 55 µM (inactive) in assay [15].

As for `COc1cc(/C=C/C(=O)O)ccc1O` [FERULATE], the GI50 in assay [2], in assay [5], in assay [6], in assay [7], in assay [8] and in [16] was > 100 µM (inactive) each time. Besides, the GI50 in [9], in assay [17], in assay [11], in assay [18], in [19] and in assay [12] was > 100 µM (inactive) each time. Also, the GI50 in assay [13], in assay [14] and in assay [15] was > 100 µM (inactive) each time.

For `CCN(CC)CCC(=O)/C=C/c1ccc(Cl)c(Cl)c1`, the GI50 is > 10 µM (inactive) in [2]; 2.36 µM (inactive) in assay [5]; 5.79 µM (inactive) in assay [6]; > 10 µM (inactive) in assay [7]; > 10 µM (inactive) in assay [8]; 3.85 µM (inactive) in assay [16]. Moreover, the GI50 in assay [9] was 8.55 µM (inactive); in assay [17] it was 3.48 µM (inactive); in assay [11] it was 2.55 µM (inactive); in assay [18], 3.21 µM (inactive); in [19], > 10 µM (inactive); in assay [13] it was 3.03 µM (inactive). Further, in assay [15], the GI50 is 3.68 µM (inactive).

As to `O=C1CCCc2cc3c(cc21)CC1(Cc2ccccc2C1)C3`, the GI50 in assay [1] is 9.12 µM (inactive); in assay [2], 2.03 µM (inactive); in assay [3], 8.91 µM (inactive); in assay [4], 8.83 µM (inactive); in [5], 2.5 µM (inactive); in [7] it was 6.78 µM (inactive). Besides, the GI50 in assay [8] is 3.48 µM (inactive); in [16], 1.93 µM (inactive); in [9], 15 µM (inactive); in assay [10], 5.11 µM (inactive); in [17], 8.18 µM (inactive); in assay [18], 1.91 µM (inactive). In addition, the figures for the GI50 in [13], in assay [14] and in assay [15] were 4.55 µM (inactive), 0.106 µM (active) and 1.86 µM (inactive), respectively.

With `O=C(Nc1ccccc1Cl)c1ccc([N+](=O)[O-])cc1`, the GI50 in assay [1] is > 100 µM (inactive); in [2], > 100 µM (inactive); in assay [3], > 100 µM (inactive); in assay [4], 33.3 µM (inactive); in assay [5], > 100 µM (inactive); in [6] it was 41.2 µM (inactive). In addition, the GI50 in assay [7], in assay [8], in [16], in assay [9], in assay [10] and in assay [11] was > 100 µM (inactive) each time. The GI50 was > 100 µM (inactive) in assay [12], 22.4 µM (inactive) in assay [14] and > 100 µM (inactive) in [15].

For the compound `Nc1c2ccccc2nc2nccnc12`, the GI50 in assay [1], in assay [2], in [3], in [4], in assay [5] and in assay [6] was > 100 µM (inactive) each time. For the same compound, the GI50 in assay [7], in assay [8], in assay [16], in assay [9], in assay [10] and in assay [11] was > 100 µM (inactive) throughout. Also, the GI50 in assay [12], in assay [13], in assay [14] and in assay [15] was > 100 µM (inactive) in each case.

Consider `C=C1C(C[C@@H]2O[C@H]3C[C@H]4O[C@@]5(C[C@@H]6O[C@]7(C[C@H](C)[C@@H]8O[C@@H]9CC(C(O)CO)O[C@@H]9C[C@@H]8O7)C[C@H](C)[C@@H]6O5)C[C@H]4O[C@H]3[C@H](C)[C@H]2O)O[C@@H](CC[C@@H]2O[C@@H](CC[C@@]34CC5O[C@H]6C(O[C@H]7CC[C@H](CC(=O)OC)O[C@@H]7[C@@H]6O3)[C@H]5O4)CC2=C)C[C@H]1C` (stereo not given in full), for which the GI50 in assay [2] was 0.000174 µM (active); in assay [3], < 0.0001 µM (active); in [4], < 0.0001 µM (active); in assay [5], < 0.0001 µM (active); in assay [6] it was 0.000304 µM (active); in assay [7] it was < 0.0001 µM (active). For the same compound, the GI50 in [8] is < 0.0001 µM (active); in [16], < 0.0001 µM (active); in assay [10], 0.000243 µM (active); in [17] it was 0.00632 µM (active); in assay [11], < 0.0001 µM (active); in assay [18], < 0.0001 µM (active). Moreover, the concentration for 50% growth inhibition (GI50) in assay [19] is < 0.0001 µM (active); in [13] it was 0.000658 µM (active); in [14], 0.000154 µM (active); in assay [15] it was < 0.0001 µM (active).

As to `c1ccc(C2OC3(CCC[C@H]4C[C@H]43)O[C@H]2c2ccccc2)cc1` (stereo not given in full), the GI50 in [1] was > 100 µM (inactive); in [2] it was 26.2 µM (inactive); in assay [3], 57.3 µM (inactive); in assay [4], 38.5 µM (inactive); in assay [5], 29 µM (inactive); in assay [6], 44.4 µM (inactive). Also, the GI50 in [7] was 38.6 µM (inactive); in assay [8] it was 30.9 µM (inactive); in assay [16], 24.7 µM (inactive); in assay [9] it was 21.5 µM (inactive); in [10], > 100 µM (inactive); in assay [11], 31.2 µM (inactive). The GI50 in assay [13] is 30.3 µM (inactive); in assay [14], 26.5 µM (inactive); in [15], 22.7 µM (inactive).

Take `O=C1Nc2c(Cl)cc(Cl)cc2/C1=N/NC(=O)c1ccncc1`: the GI50 in [1] was > 100 µM (inactive); in assay [2], 47.2 µM (inactive); in assay [3], 17.3 µM (inactive); in [4], 20 µM (inactive); in assay [5], 30.9 µM (inactive); in assay [6], > 100 µM (inactive). Besides, the GI50 in assay [7] is 22.8 µM (inactive); in assay [8], 19.6 µM (inactive); in [16], 27.2 µM (inactive); in [9], 19 µM (inactive); in assay [10], 25.6 µM (inactive); in assay [17], 17.3 µM (inactive). For the same compound, the GI50 in [11] was 28.4 µM (inactive); in assay [18], 16.5 µM (inactive); in [12], 22.6 µM (inactive); in assay [13] it was 38 µM (inactive); in assay [14], 46.3 µM (inactive); in assay [15] it was 27.9 µM (inactive).

On to `CCOC(=O)N(C)C(=C(F)F)C(F)(F)F`, for which the GI50 was 19.2 µM (inactive) in assay [2]; > 10 µM (inactive) in [3]; 35 µM (inactive) in [5]; 20.5 µM (inactive) in assay [7]; 31.5 µM (inactive) in assay [8]; 21 µM (inactive) in assay [16]. Moreover, the GI50 is 16 µM (inactive) in assay [9]; 36 µM (inactive) in assay [10]; 28.5 µM (inactive) in assay [17]; 21.2 µM (inactive) in assay [11]; 22.8 µM (inactive) in [18]; 33.2 µM (inactive) in assay [19]. Also, the GI50 in assay [12] was 20 µM (inactive); in [13], > 10 µM (inactive); in assay [14], 29.5 µM (inactive); in assay [15] it was 22.1 µM (inactive).

For the compound `COC1CC(OC2C(C)OC(OC3C(C)OC(OC4C(O)CC(O[C@H]5CC[C@@]6(C)C(=CC[C@]7(O)[C@@H]6C[C@@H](OC(=O)/C=C/c6ccccc6)[C@@]6(C)[C@]7(O)CC[C@@]6(O)C(C)=O)C5)OC4C)CC3OC)CC2OC)OC(C)C1O` (stereo not given in full), the GI50 in assay [2], in assay [3], in assay [5], in assay [6], in assay [7] and in [8] was > 6.25 µM (inactive) in each case. The GI50 in assay [16], in assay [9], in [10], in assay [17], in assay [11] and in assay [18] was > 6.25 µM (inactive) throughout. Also, the GI50 in assay [19], in assay [13], in [14] and in assay [15] was > 6.25 µM (inactive) throughout.

Take `CC(CC(=O)N1C2CC3CCC2(CS1(=O)=O)C3(C)C)[Si](C)(C)C` (stereo not given): the GI50 in [2], in assay [4], in [5], in [6], in assay [7] and in assay [8] was > 100 µM (inactive) each time. Also, the GI50 in [16], in assay [17], in [11], in assay [18], in assay [19] and in assay [12] was > 100 µM (inactive) in each case. In addition, the GI50 in assay [13], in assay [14] and in assay [15] was > 100 µM (inactive) each time.

The values above are taken from ChEMBL document CHEMBL1201862, “PubChem BioAssay data set” (2004).
